Results from patent US7728036B2, “Methods for delivery of catecholic butanes for treatment of tumors” (priority 2003, dated 2010).

Legend:
[1] = system: human mammary carcinoma MX-1 xenograft; conditions: intratumor injection or topical application of NDGA; cited from earlier work
Solubility character = type: physicochemical
[2] = system: HPV-16 transformed immortal mouse epithelial cells (C3); conditions: intratumor injection; cited from earlier work

Row | Compound | Inhibition of tumor growth [1] | Water solubility / hydrophilic or lipophilic character (Solubility character) | Suppression of tumor growth / tumoricidal activity [2]
1 | CC(Cc1ccc(O)c(O)c1)C(C)Cc1ccc(O)c(O)c1 (stereo not drawn) [NDGA, nordihydroguaiaretic acid] | Some evidence of inhibition of tumor growth | – | –
2 | C[C@H](Cc1ccc(OC(=O)CN(C)C)c(OC(=O)CN(C)C)c1)[C@@H](C)Cc1ccc(OC(=O)CN(C)C)c(OC(=O)CN(C)C)c1 [G4N, meso-1,4-bis[3,4-(dimethylaminoacetoxy)phenyl]-(2R,3S)-dimethylbutane] | – | water-soluble, hydrophilic | some evidence of suppression of tumor growth
